Experimental data: patent US20240101540A1, “TARGETED PROTEIN DEGRADATION OF PARP14 FOR USE IN THERAPY” (Ribon Therapeutics, Inc., priority 2022, published 2024)
Structures can show the parent of a compound that is named as a salt.

Target: T1, HiBiT tagged PARP14 (Homo sapiens, UniProt Q460N5)
T1 construct: engineered to contain a HiBiT tag on both alleles of the PARP14 gene; endogenous in cells; host or cells: Jurkat cells stably transfected with LgBiT (Promega), PARP14 locus edited by CRISPR/Cas9
Assay: HiBiT assay for the degradation of PARP14 (HiBiT tagged PARP14 in LgBiT expressing Jurkat cells, 2 or 24 hours)
Format: cell-based
Details: Assay B (Example B): HiBiT tagged PARP14 degradation in LgBiT expressing Jurkat cells, read-out: DC50
Method in brief: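 Luminescence from HiBiT–LgBiT complementation served as proxy for endogenous PARP14 level in edited LgBiT Jurkat cells (5,000/well). After 2 or 24 h compound exposure at 37 °C, signal read with Live Cell Substrate, expressed as % of 0.1% DMSO control, and fitted (4-parameter, free Hill) for DC50.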

T1 sequence (Q460N5 whole entry): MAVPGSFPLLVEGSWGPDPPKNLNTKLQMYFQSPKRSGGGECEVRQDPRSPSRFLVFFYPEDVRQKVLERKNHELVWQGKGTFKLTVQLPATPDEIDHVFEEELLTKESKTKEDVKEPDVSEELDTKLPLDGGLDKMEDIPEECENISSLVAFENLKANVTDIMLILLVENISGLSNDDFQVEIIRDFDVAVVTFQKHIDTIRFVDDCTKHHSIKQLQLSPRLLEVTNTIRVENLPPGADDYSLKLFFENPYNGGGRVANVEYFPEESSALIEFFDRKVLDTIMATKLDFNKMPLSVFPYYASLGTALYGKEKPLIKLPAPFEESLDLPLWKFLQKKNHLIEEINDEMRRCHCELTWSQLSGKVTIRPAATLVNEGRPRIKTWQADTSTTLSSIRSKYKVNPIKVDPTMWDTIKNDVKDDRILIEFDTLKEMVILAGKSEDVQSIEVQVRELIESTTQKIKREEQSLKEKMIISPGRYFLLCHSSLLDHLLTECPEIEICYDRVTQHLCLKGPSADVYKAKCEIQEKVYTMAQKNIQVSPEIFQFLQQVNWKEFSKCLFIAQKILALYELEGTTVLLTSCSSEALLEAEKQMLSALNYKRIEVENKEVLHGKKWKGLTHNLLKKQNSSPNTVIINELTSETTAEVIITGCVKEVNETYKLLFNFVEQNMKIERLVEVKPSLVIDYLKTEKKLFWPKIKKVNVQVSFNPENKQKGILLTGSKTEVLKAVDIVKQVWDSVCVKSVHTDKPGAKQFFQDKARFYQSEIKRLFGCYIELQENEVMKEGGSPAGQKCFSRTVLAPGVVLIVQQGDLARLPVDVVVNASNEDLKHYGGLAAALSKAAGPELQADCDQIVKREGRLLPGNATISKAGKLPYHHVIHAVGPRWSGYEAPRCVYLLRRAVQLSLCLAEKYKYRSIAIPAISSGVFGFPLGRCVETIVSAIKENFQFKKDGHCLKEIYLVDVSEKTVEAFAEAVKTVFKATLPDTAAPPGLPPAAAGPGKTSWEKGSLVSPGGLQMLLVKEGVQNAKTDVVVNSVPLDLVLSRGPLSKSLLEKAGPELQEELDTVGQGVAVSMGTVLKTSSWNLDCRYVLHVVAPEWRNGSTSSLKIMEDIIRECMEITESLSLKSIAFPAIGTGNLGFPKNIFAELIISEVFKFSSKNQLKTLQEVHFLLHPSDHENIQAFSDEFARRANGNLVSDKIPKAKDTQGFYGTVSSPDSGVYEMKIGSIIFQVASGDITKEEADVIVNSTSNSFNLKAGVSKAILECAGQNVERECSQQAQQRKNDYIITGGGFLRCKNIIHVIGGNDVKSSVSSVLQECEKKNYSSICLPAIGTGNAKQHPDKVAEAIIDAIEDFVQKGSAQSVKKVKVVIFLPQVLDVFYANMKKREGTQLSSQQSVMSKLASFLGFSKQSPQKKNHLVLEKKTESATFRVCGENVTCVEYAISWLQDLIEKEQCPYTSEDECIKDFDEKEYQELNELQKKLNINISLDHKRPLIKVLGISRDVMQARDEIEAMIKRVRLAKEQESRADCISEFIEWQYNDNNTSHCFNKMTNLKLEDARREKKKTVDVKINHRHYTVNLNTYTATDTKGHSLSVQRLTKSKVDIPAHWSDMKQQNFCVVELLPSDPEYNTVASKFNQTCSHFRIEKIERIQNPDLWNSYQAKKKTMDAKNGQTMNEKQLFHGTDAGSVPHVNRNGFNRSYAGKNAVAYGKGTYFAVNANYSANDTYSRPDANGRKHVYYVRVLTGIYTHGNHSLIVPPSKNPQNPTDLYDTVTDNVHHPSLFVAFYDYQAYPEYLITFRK

Structure (SMILES)	DC50 [nM]
O=C1CCC(N2C(=O)c3cccc4c(N5CCC(N6CC(N7CCC(COc8cc(F)c9c(=O)[nH]c(CSC%10CCOCC%10)nc9c8)CC7)C6)CC5)ccc2c34)C(=O)N1 (centres unmarked) [Example 169, 3-(6-(4-(3-(4-(((5-fluoro-4-oxo-2-(((tetrahydro-2H-pyran-4-yl)thio)methyl)-3,4-dihydroquinazolin-7-yl)oxy)methyl)piperidin-1-yl)azetidin-1-yl)piperidin-1-yl)-2-oxobenzo[cd]indol-1(2H)-yl)piperidine-2,6-dione]	< 30
O=C1CCC(Nc2ccc(N3CCC(O)(CC(=O)N4CCC(COc5cc(F)c6c(=O)[nH]c(CSC7CCOCC7)nc6c5)CC4)CC3)cc2F)C(=O)N1 (centres unmarked) [Example 170, 3-((2-fluoro-4-(4-(2-(4-(((5-fluoro-4-oxo-2-(((tetrahydro-2H-pyran-4-yl)thio)methyl)-3,4-dihydroquinazolin-7-yl)oxy)methyl)piperidin-1-yl)-2-oxoethyl)-4-hydroxypiperidin-1-yl)phenyl)amino)piperidine-2,6-dione]	< 30
O=C1CCC(Nc2ccc(N3CCN(CC(=O)N4CCC(COc5cc(F)c6c(=O)[nH]c(CSC7CCOCC7)nc6c5)CC4)CC3)c(F)c2)C(=O)N1 (centres unmarked) [Example 174, 3-((3-fluoro-4-(4-(2-(4-(((5-fluoro-4-oxo-2-(((tetrahydro-2H-pyran-4-yl)thio)methyl)-3,4-dihydroquinazolin-7-yl)oxy)methyl)piperidin-1-yl)-2-oxoethyl)piperazin-1-yl)phenyl)amino)piperidine-2,6-dione]	< 30
O=C1CCC(Nc2ccc(N3CCC(N4CC(CC(=O)N5CCC(COc6cc(F)c7c(=O)[nH]c(CSC8CCOCC8)nc7c6)CC5)C4)CC3)c(F)c2)C(=O)N1 (centres unmarked) [Example 179, 3-((3-fluoro-4-(4-(3-(2-(4-(((5-fluoro-4-oxo-2-(((tetrahydro-2H-pyran-4-yl)thio)methyl)-3,4-dihydroquinazolin-7-yl)oxy)methyl)piperidin-1-yl)-2-oxoethyl)azetidin-1-yl)piperidin-1-yl)phenyl)amino)piperidine-2,6-dione]	< 30
O=C1CCN(c2ccc(N3CCC(CN4CCC(COc5cc(F)c6c(=O)[nH]c(COC7CCOCC7)nc6c5)CC4)CC3)c(F)c2)C(=O)N1 [Example 180, 1-(3-fluoro-4-(4-((4-(((5-fluoro-4-oxo-2-(((tetrahydro-2H-pyran-4-yl)oxy)methyl)-3,4-dihydroquinazolin-7-yl)oxy)methyl)piperidin-1-yl)methyl)piperidin-1-yl)phenyl)dihydropyrimidine-2,4(1H,3H)-dione]	< 30
Cn1nc(N2CCC(=O)NC2=O)c2ccc(N3CCC(CN4CCC(COc5cc(F)c6c(=O)[nH]c(CSC7CCOCC7)nc6c5)CC4)CC3)cc21 [Example 181, 1-(6-(4-((4-(((5-fluoro-4-oxo-2-(((tetrahydro-2H-pyran-4-yl)thio)methyl)-3,4-dihydroquinazolin-7-yl)oxy)methyl)piperidin-1-yl)methyl)piperidin-1-yl)-1-methyl-1H-indazol-3-yl)dihydropyrimidine-2,4(1H,3H)-dione]	< 30
Cn1nc(N2CCC(=O)NC2=O)c2cc(F)c(N3CCC(CN4CCC(COc5cc(F)c6c(=O)[nH]c(CSC7CCOCC7)nc6c5)CC4)CC3)cc21 [Example 182, 1-(5-fluoro-6-(4-((4-(((5-fluoro-4-oxo-2-(((tetrahydro-2H-pyran-4-yl)thio)methyl)-3,4-dihydroquinazolin-7-yl)oxy)methyl)piperidin-1-yl)methyl)piperidin-1-yl)-1-methyl-1H-indazol-3-yl)dihydropyrimidine-2,4(1H,3H)-dione]	< 30

Continued, values first:

DC50 [nM]	Structure (SMILES)
< 30	O=C1CCC(Nc2ccc(N3CCC(N4CC(C(=O)N5CCC(COc6cc(F)c7c(=O)[nH]c(CSC8CCOCC8)nc7c6)CC5)C4)CC3)c(F)c2)C(=O)N1 (centres unmarked) [Example 171, 3-((3-fluoro-4-(4-(3-(4-(((5-fluoro-4-oxo-2-(((tetrahydro-2H-pyran-4-yl)thio)methyl)-3,4-dihydroquinazolin-7-yl)oxy)methyl)piperidine-1-carbonyl)azetidin-1-yl)piperidin-1-yl)phenyl)amino)piperidine-2,6-dione]
< 30	O=C1CCC(Nc2ccc(N3CCC(C(=O)N4CCC(N5CCC(COc6cc(F)c7c(=O)[nH]c(COC8CCOCC8)nc7c6)CC5)CC4)CC3)c(F)c2)C(=O)N1 (centres unmarked) [Example 172, 3-((3-fluoro-4-(4-(4-(((5-fluoro-4-oxo-2-(((tetrahydro-2H-pyran-4-yl)oxy)methyl)-3,4-dihydroquinazolin-7-yl)oxy)methyl)-[1,4′-bipiperidine]-1′-carbonyl)piperidin-1-yl)phenyl)amino)piperidine-2,6-dione]
< 30	O=C1CCC(Nc2ccc(N3CCC(C(=O)N4CCC(N5CCC(COc6cc(F)c7c(=O)[nH]c(CSC8CCOCC8)nc7c6)CC5)CC4)CC3)c(F)c2)C(=O)N1 (centres unmarked) [Example 173, 3-((3-fluoro-4-(4-(4-(((5-fluoro-4-oxo-2-(((tetrahydro-2H-pyran-4-yl)thio)methyl)-3,4-dihydroquinazolin-7-yl)oxy)methyl)-[1,4′-bipiperidine]-1′-carbonyl)piperidin-1-yl)phenyl)amino)piperidine-2,6-dione formate]
< 30	O=C1CCC(Nc2ccc(N3CCC(C(=O)N4CCC(N5CCC(COc6cc(F)c7c(=O)[nH]c(CCC8CCOCC8)nc7c6)CC5)CC4)CC3)c(F)c2)C(=O)N1 (centres unmarked) [Example 175, 3-((3-fluoro-4-(4-(4-(((5-fluoro-4-oxo-2-(2-(tetrahydro-2H-pyran-4-yl)ethyl)-3,4-dihydroquinazolin-7-yl)oxy)methyl)-[1,4′-bipiperidine]-1′-carbonyl)piperidin-1-yl)phenyl)amino)piperidine-2,6-dione]
< 30	O=C1CCC(Nc2ccc(N3CCC(C(=O)N4CCC(N5CCC(COc6cc(F)c7c(=O)[nH]c(CSC8CCOCC8)nc7c6)CC5)C4)CC3)c(F)c2)C(=O)N1 (centres unmarked) [Example 176, 3-((3-fluoro-4-(4-(3-(4-(((5-fluoro-4-oxo-2-(((tetrahydro-2H-pyran-4-yl)thio)methyl)-3,4-dihydroquinazolin-7-yl)oxy)methyl)piperidin-1-yl)pyrrolidine-1-carbonyl)piperidin-1-yl)phenyl)amino)piperidine-2,6-dione]
< 30	O=C1CCC(Nc2ccc(N3CCC(C(=O)N4CC(N5CCC(COc6cc(F)c7c(=O)[nH]c(COC8CCOCC8)nc7c6)CC5)C4)CC3)c(F)c2)C(=O)N1 (centres unmarked) [Example 177, 3-((3-fluoro-4-(4-(3-(4-(((5-fluoro-4-oxo-2-(((tetrahydro-2H-pyran-4-yl)oxy)methyl)-3,4-dihydroquinazolin-7-yl)oxy)methyl)piperidin-1-yl)azetidine-1-carbonyl)piperidin-1-yl)phenyl)amino)piperidine-2,6-dione]
< 30	O=C1CCC(Nc2ccc(N3CCC(C(=O)N4CC(N5CCC(COc6cc(F)c7c(=O)[nH]c(CC8CC8)nc7c6)CC5)C4)CC3)c(F)c2)C(=O)N1 (centres unmarked) [Example 178, 3-((4-(4-(3-(4-(((2-(cyclopropylmethyl)-5-fluoro-4-oxo-3,4-dihydroquinazolin-7-yl)oxy)methyl)piperidin-1-yl)azetidine-1-carbonyl)piperidin-1-yl)-3-fluorophenyl)amino)piperidine-2,6-dione]
